Results published in patent US20020106375A1, “Non-cytolytic soluble factor from activated-expanded CD4 cells” (priority 2000, published 2002).
Where a name gives a salt, the structure may show the parent alone. Read-outs that look alike come from different tables or passages of the source.

Experiments:
[1] = biological target: T1, topoisomerase I-DNA complexes (Homo sapiens, UniProt P11387); assay: Topoisomerase I-DNA complexes in LS513 cells; assay type: cell-based; conditions: factor 25%, 50 μM irinotecan
T1 construct: endogenous in cells; host or cells: LS513
T1 sequence (P11387 1-765): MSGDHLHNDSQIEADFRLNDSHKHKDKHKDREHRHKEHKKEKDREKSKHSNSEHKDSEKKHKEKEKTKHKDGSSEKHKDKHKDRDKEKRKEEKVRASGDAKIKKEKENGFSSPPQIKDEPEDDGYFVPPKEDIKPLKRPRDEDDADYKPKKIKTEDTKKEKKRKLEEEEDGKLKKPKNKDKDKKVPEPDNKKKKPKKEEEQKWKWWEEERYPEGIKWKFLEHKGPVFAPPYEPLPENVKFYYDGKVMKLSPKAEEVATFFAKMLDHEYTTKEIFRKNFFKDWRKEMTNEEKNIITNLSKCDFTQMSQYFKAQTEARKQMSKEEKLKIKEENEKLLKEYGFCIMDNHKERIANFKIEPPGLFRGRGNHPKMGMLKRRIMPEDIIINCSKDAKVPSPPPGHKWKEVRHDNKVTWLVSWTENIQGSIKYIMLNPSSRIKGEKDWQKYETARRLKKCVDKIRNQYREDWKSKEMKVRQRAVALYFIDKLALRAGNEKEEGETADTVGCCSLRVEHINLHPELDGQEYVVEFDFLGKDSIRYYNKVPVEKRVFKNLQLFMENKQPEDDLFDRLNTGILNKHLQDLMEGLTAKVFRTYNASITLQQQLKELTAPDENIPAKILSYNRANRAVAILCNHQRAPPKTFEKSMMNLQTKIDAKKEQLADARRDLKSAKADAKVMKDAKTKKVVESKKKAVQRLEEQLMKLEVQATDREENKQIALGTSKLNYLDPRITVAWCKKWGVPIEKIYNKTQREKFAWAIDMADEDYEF
Experimental: Three different concentrations of DNA (recovered from the DNA peak fractions of each CsCI gradient) were spotted onto the membrane.
The blot was placed on a phosphorimager and signal strengths from the 2 μg slots were quantified. Based upon comparison to a known standard of purified topoisomerase I on the same blot, the signals are expressed as ng or topoisomerase I per ml of DNA=no additions (i.e., untreated). The data are quantified in Table 22 and FIG. 35.

[2] = system: FasR (CD95) of LS513 cells; assay: FasR (CD95) expression by flow cytometry, LS513; assay type: cell-based, human
Experimental: (§1) Flow cytometry was used to assess FasR expression and cell cycle. Analysis of cell cycle was performed using propidium iodide on a Coulter EPICS Elite flow cytometer (Coulter Corporation) equipped with a 488 nm, 15 mW, air-cooled Argon laser. […] Optical laser alignment calibration of the flow cytometer was performed using Coulter's DNA-Check EPICS alignment fluorosphere beads with coefficient of variations routinely less than 2%. PI fluorescent light emission was collected through a 610 nm, long-pass transmission filter. PI signal was measured in linear mode and extended analysis of DNA content was performed using the ModFit LT program (Verity Software House, Inc., Topsham, Me.). Data are presented as the percentage of cells in G1-G0, S and G2-M.

[3] = system: FasR (CD95) of SW480 cells; assay: FasR (CD95) expression by flow cytometry, SW480; assay type: cell-based, human
Experimental: as §1

caspase-3 [4] = assay: Caspase-3 activity, colorimetric, colorectal cancer cells; assay type: cell-based, human
Experimental: (§2) Caspase-3 and caspase-8 activities were determined using a calorimetric assay kit (R&D Systems, Inc., Minneapolis, Minn.). Assays were conducted according to the instructions of the manufacturer.

caspase-8 [5] = assay: Caspase-8 activity, colorimetric, colorectal cancer cells; assay type: cell-based, human
Experimental: as §2

LS513 cells = assay: Proliferation assay with median effect analysis, LS513; assay type: cell-based; conditions: Homo sapiens, LS-513, topotecan 1 μg/ml, supernatant 25% v/v, antibodies 10 μg/ml, read-out: Fractional Inhibition
Experimental: (§3) MTS was added for the final 5 hours of culture as recommended by the manufacturer (CelTiter, 96 AQueous Non-Radioactive Cell Proliferation Assay, Promega, Madison, Wis.), and the absorbence was read in a DigiScan reader (ASYS Hitech, Austria) at A492 nm. Samples were evaluated in triplicate. Tumor cells cultured in maintenance media with no addition and the maintenance media alone were used as controls. Fractional inhibition was determined by the following formula: [formula]
According to this method, “synergy” is indicated by a Cl of less than 1, “addition” by a Cl equal to 1, and “antagonism” by a Cl greater than 1. A Cl of less than 0.3 is considered to represent “strong synergism”, and a Cl greater than 3.3 is considered to represent “strong antagonism”.

SKBR3 cells = assay: Tumor proliferation assay (MTS), SKBR3; assay type: cell-based, human; conditions: tamoxifen 10 μg/ml; for inhibition at 10 µg/mL: Homo sapiens, SKBR3, Factor C 5% v/v, read-out: Fractional Inhibition
Experimental: as §3, with “(CeiTiter” for “(CelTiter,”, “AQueous,” for “AQueous”, “Assay;” for “Assay,”, “formula set forth above.” for “following formula: [formula]”
The combined effects of the drugs and supernatants were analyzed by the median effect method of Chou and Talalay using CalcuSyn software (see above). […] According to this method, “synergy” is indicated by a Cl of less than 1, “addition” by a Cl equal to 1, and “antagonism” by a Cl greater than 1. A Cl of less than 0.3 is considered to represent “strong synergism”, and a Cl greater than 3.3 is considered to represent “strong antagonism”.

[6] = system: Fas (CD95) of SKBR3 cells; assay: Fas (CD95) expression by flow cytometry, SKBR3; assay type: cell-based, human; conditions: tamoxifen 10 μg/ml
Experimental: as §1, with “assess Fas” for “assess FasR”, “cycle. Cells were reacted sequentially with mAb to Fas (CD95) and then with a fluorescenated goat anti-mouse antibody, according to the recommendations of the manufacturer. Percent fluorescent cells and fluorescence intensity was determined using an Epics Elite cytofluorograph (Coulter Corp.). All samples were compared to their isotype-matched controls.” for “cycle.”, “cytometer” for “cytometer (Coulter Corporation)”, “using” for “using the”, “LT program, as described above.” for “LT program (Verity Software House, Inc., Topsham, Me.).”, “G1-G0, S,” for “G1-G0, S”

caspase-3 [7] = assay: Caspase-3 activity, SKBR3; assay type: cell-based, human; conditions: Factor C 5% v/v, tamoxifen 10 μg/ml
Experimental: (§4) Caspase-3 and caspase-8 activities were determined using a calorimetric assay kit (R&D Systems, Inc., Minneapolis, Minn.). Assays were conducted according to the instructions of the manufacturer. Protein kinase C, Prote3in kinase c alpha and delta levels were determined by immunoprecipitation and Western blotting, as previously described. Hofmeister, et al., “Clustered CD20 induced apoptosis: src-family kinase, the proximal regulator of tyrosine phosphorylation, calcium influx, and caspase 3-dependent apoptosis”, Blood Cells Mol Dis, 26:133-43, 2000.

caspase-8 [8] = assay: Caspase-8 activity, SKBR3; assay type: cell-based, human; conditions: Factor C 5% v/v, tamoxifen 10 μg/ml
Experimental: as §4

[9] = biological target: soluble Fas ligand (sFasL) in supernatants of anti-CD3/IL-2 activated-expanded T cells (human) (UniProt P48023); assay: cell-based or functional assay
SW480 cells = assay: Proliferation assay (MTS), SW480; assay type: cell-based, human; conditions: Table 13; supernatant 25% v/v; IFN-γ, TNF-α 1,000 U/ml; antibodies 10 μg/ml
Experimental: as §3, with “Unstimulated and stimulated supernatants, as well as the expansion media, were added at a range of volumes to SW480, LS174T, or Jurkat cells or cultured in their maintenance media in 24-well plates for 96 hours. MTS” for “MTS”

Sequence of soluble Fas ligand (sFasL) in supernatants of anti-CD3/IL-2 activated-expanded T cells (human) (P48023 130-281 limits assumed): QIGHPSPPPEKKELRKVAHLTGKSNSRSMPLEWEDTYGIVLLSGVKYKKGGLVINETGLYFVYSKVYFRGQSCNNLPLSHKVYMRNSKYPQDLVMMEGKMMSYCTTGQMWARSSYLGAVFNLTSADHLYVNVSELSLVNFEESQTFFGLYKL

CCc1c2c(nc3ccc(OC(=O)N4CCC(N5CCCCC5)CC4)cc13)-c1cc3c(c(=O)n1C2)COC(=O)[C@]3(O)CC [CPT, Irinotecan HCl]
topoisomerase I-DNA complexes signal ([1]; Time 1 hrs): 3.93 ng or topoisomerase I per ml of DNA
topoisomerase I-DNA complexes signal ([1]; Time 12 hrs): 4.83 ng or topoisomerase I per ml of DNA
topoisomerase I-DNA complexes signal ([1]; Time 48 hrs): 5.37 ng or topoisomerase I per ml of DNA
CD95 [2]: 13
CD95 [3]: 13
Caspase-3 (caspase-3 [4]; LS513 Cells): 0.12
Caspase-3 (caspase-3 [4]; SW480 Cells): 0.12
Caspase-8 (caspase-8 [5]; LS513 Cells): 0.11
Caspase-8 (caspase-8 [5]; SW480 Cells): 0.11

CC[C@@]1(O)C(=O)OCc2c1cc1n(c2=O)Cc2cc3c(CN(C)C)c(O)ccc3nc2-1 [TPT, Topotecan]
inhibition at 1 µg/mL (LS513 cells): 51%

CC/C(=C(\c1ccccc1)c1ccc(OCCN(C)C)cc1)c1ccccc1 [Tamoxifen]
inhibition at 10 µg/mL (SKBR3 cells; SK-BR-3, Table 28, blocking antibody 50 μg/ml): 32%
inhibition at 10 µg/mL (SKBR3 cells; SK-BR-3, Table 29): 44.5%
F1 (SKBR3 cells; Table 27, SKBR3 cells): 0.28
CD95 ([6]; Table 27, SKBR3 cells): 11
CD 95 Cells ([6]; Table 29, SKBR3, CD95 mean cell fluorescence, Factor C 5% v/v): 1.8
Caspase-3 (caspase-3 [7]): 0.12
Caspase-8 (caspase-8 [8]): 0.01

B1: anti-FasL antibody NOK1 (antibody, from another filing, V domains shown)
VH: VQLQESGPELVKPGASVKISCKASGYAFSSSWMNWVKQRPGKGLEWIGRIYPGDGDTNDNGKFKGKATLTADKSSSTAYMQLSSLTSEDSAVYFCARSYYYDGSPWFTYWGQGTTVTVSS
VL: DIQMTQSPSSLSASLGDRVTISCRASQDISNYLNWYQQKPDGTVKLLIYYTSRLHSGVPSRFSGSGSGTDYSLTISNLEPEDIATYFCQQYSEFPWTFGGGTKLEIKR
Fractional Inhibition - Run 1, Supernatant + anti-FasL (supernatant alone 0.36) [9]: 0.15
Fractional Inhibition - Run 2, Supernatant + anti-FasL (supernatant alone 0.41) [9]: 0.21
Fractional Inhibition, Sup + TPT + anti-FasL on LS513 cells (Sup + TPT alone 0.84) [9]: 0.69

B2: IFN: human recombinant IFN-γ (protein, UniProt P01579 24-161, looked up)
Interferon gamma: QDPYVKEAENLKKYFNAGHSDVADNGTLFLGILKNWKEESDRKIMQSQIVSFYFKLFKNFKDDQSIQKSVETIKEDMNVKFFNSNKKKRDDFEKLTNYSVTDLNVQRKAIHELIQVMAELSPAAKTGKRKRSQMLFRG
Fractional Inhibition - Run 1 (SW480 cells): 0.01
Fractional Inhibition - Run 2 (SW480 cells): 0.011
